Assay results reported in patent US5053333A, “Protease” (M & D Research Co., Ltd., priority 1988, dated 1991).
“Also recorded” adds a separate entry of the source. Where two headings read alike, the source gives them in different places. Square brackets hold non-standard residues; d marks the D form. Ends that are not written are not given here. Peptide text beside a SMILES is read from it. pGlu = O=C1CC[C@@H](C(=O)O)N1

Tested on: Benz-I (protease specific for basic amino acid residue)
Experiment: Cleavage of peptides by Benz-I, HPLC and amino acid composition of fragments
Assay type: biochemical, Kluyveromyces lactis IFO 1903
Description: The composition of the employed reaction mixture and the examination conditions were as follows. Namely, 500 μl of a reaction mixture containing 25 μmol of tris hydrochloride buffer solution (pH 7.0), 0.25 μmol of CaCl2, 5 mg of Lubrol PX, 100 μg of NaN3, each peptide at various concentrations and Benz-I at various concentrations was allowed to react at 30° C. for 20 hours.
50-μl portions of the reaction mixture were sampled after the reaction for 0 and 20 hours and 50 μl of a reaction terminating agent comprising 0.2% of TFA and 10 mM of EDTA was added thereto. The resulting mixture was analyzed by HPLC. The HPLC was conducted by CH3 CN gradient elution with the use of an Ultron NC18 column (0.45×15 cm) or a TSK gel ODS-80TM column (0.46×25 cm) in the presence of 0.1% of TFA.
The residual reaction mixture was chromatographed under the same conditions as those employed in the above analysis and main peaks were fractionated. The fractionated eluate was evaporated to dryness on a centrifugal evaporator and decomposed with hydrochloric acid at 110° C. for 24 hours. Then each fragment was assumed from the amino acid composition.

[1] = 200 mU Benz-I, 50 nmol peptide, 30° C., 20 hours

Molecule | Fragment obtained (assumed from amino acid composition) after reaction with Benz-I [1] | Fragment obtained (assumed from amino acid composition) after reaction with Benz-I
CC[C@H](C)[C@H](NC(=O)[C@H](Cc1c[nH]c2ccccc12)NC(=O)[C@@H]1CCCN1C(=O)[C@H](CCCNC(=N)N)NC(=O)[C@H](CCCCN)NC(=O)CNC(=O)[C@@H]1CCC(=O)N1)C(=O)N[C@@H](CC(C)C)C(=O)O [Xenopsin] ([pGlu]GKRPWIL-OH) | pGlu-Gly-Lys-Arg | 
RKRSRKE [protein kinase-related peptide] | Ser-Arg-Lys-Glu | 
Tyr-Gly-Gly-Phe-Leu-Arg-Arg-Ile-Arg-Pro-Lys-Leu-Lys (YGGFLRRIRPKLK; printed: Tyr-Gly-Gly-Phe-Leu-Arg-Arg-Ile-Arg-Pro-Lys-Leu-Lys) [Dynorphin A (1-13)] |  | Ile-Arg-Pro-Lys-Leu-Lys; also recorded: Try-Gly-Gly-Phe-Leu-Arg-Arg
YGGFMRRVGRPEWWMDYQKRYGGFL [3200-dalton Adrenal Peptide E] |  | ^1 Tyr-Gly-Gly-Phe-Met-Arg-^7 Arg; also recorded: ^21 Tyr-Gly-Gly-Phe-^25 Leu
YGGFMRRVRPE [BAM-12P] |  | Val-Gly-Arg-Pro-Glu
